Laboratory results: ChEMBL document CHEMBL1201861, “Genomics of Drug Sensitity in Cancer screening data, Wellcome Trust Sanger Institute”

Assays:
Test in all cases: cells
D-502MG = format: functional, cell-based; conditions: Homo sapiens
Description: SANGER: Inhibition of human D-502MG cell growth in a cell viability assay.

DJM-1 = format: functional, cell-based; conditions: Homo sapiens;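 note: growth inhibition of human DJM-1 cells, read out by a cell viability assay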
Description: SANGER: Inhibition of human DJM-1 cell growth in a cell viability assay.

EKVX = format: functional, cell-based; conditions: Homo sapiens;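 note: growth inhibition of human EKVX cells, read out with a cell viability assay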
Description: SANGER: Inhibition of human EKVX cell growth in a cell viability assay.

ES4 = format: functional, cell-based; conditions: Homo sapiens;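 note: growth inhibition of human ES4 cells, read out by a cell viability assay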
Description: SANGER: Inhibition of human ES4 cell growth in a cell viability assay.

ES5 = format: functional, cell-based; conditions: Homo sapiens;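 note: growth inhibition of human ES5 cells, read out by a cell viability assay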
Description: SANGER: Inhibition of human ES5 cell growth in a cell viability assay.

ES6 = format: functional, cell-based; conditions: Homo sapiens;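 note: growth inhibition of human ES6 cells, read out with a cell viability assay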
Description: SANGER: Inhibition of human ES6 cell growth in a cell viability assay.

EW-13 = format: functional, cell-based; conditions: Homo sapiens;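 note: growth inhibition of EW-13 cells, read out with a cell viability assay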
Description: SANGER: Inhibition of human EW-13 cell growth in a cell viability assay.

GI-1 = format: functional, cell-based; conditions: Homo sapiens;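 note: growth inhibition of human GI-1 cells, measured with a cell viability readout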
Description: SANGER: Inhibition of human GI-1 cell growth in a cell viability assay.

HAL-01 = format: functional, cell-based; conditions: Homo sapiens;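 note: growth inhibition of human HAL-01 cells, read out with a cell viability assay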
Description: SANGER: Inhibition of human HAL-01 cell growth in a cell viability assay.

HCC1187 = format: functional, cell-based; conditions: Homo sapiens;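 note: growth inhibition of HCC1187 cells, read out with a cell viability assay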
Description: SANGER: Inhibition of human HCC1187 cell growth in a cell viability assay.

HCC2218 = format: functional, cell-based; conditions: Homo sapiens;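 note: cell viability assay read-out, with IC50 given as the concentration that inhibits growth of the cell line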
Description: SANGER: Inhibition of human HCC2218 cell growth in a cell viability assay.

HDLM-2 = format: functional, cell-based; conditions: Homo sapiens;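 note: cell viability assay measuring suppression of HDLM-2 proliferation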
Description: SANGER: Inhibition of human HDLM-2 cell growth in a cell viability assay.

HOP-62 = format: functional, cell-based; conditions: Homo sapiens;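 note: cell growth inhibition determined with a viability assay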
Description: SANGER: Inhibition of human HOP-62 cell growth in a cell viability assay.

HOS = format: functional, cell-based; conditions: Homo sapiens;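 note: growth inhibition of human HOS cells, read out with a cell viability assay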
Description: SANGER: Inhibition of human HOS cell growth in a cell viability assay.

JVM-2 = format: functional, cell-based; conditions: Homo sapiens;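 note: growth inhibition of JVM-2 cells determined by a cell viability assay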
Description: SANGER: Inhibition of human JVM-2 cell growth in a cell viability assay.

JVM-3 = format: functional, cell-based; conditions: Homo sapiens;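 note: growth inhibition of human JVM-3 cells, read out with a cell viability assay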
Description: SANGER: Inhibition of human JVM-3 cell growth in a cell viability assay.

KARPAS-299 = format: functional, cell-based; conditions: Homo sapiens
Description: SANGER: Inhibition of human KARPAS-299 cell growth in a cell viability assay.

KARPAS-45 = format: functional, cell-based; conditions: Homo sapiens;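 note: inhibition of cell line growth, read out through a viability assay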
Description: SANGER: Inhibition of human KARPAS-45 cell growth in a cell viability assay.

KG-1 = format: functional, cell-based; conditions: Homo sapiens;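 note: growth inhibition of KG-1 cells, read out by a cell viability assay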
Description: SANGER: Inhibition of human KG-1 cell growth in a cell viability assay.

KM-H2 = format: functional, cell-based; conditions: Homo sapiens;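 note: growth inhibition of KM-H2 cells, read out by a cell viability assay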
Description: SANGER: Inhibition of human KM-H2 cell growth in a cell viability assay.

KNS-81-FD = format: functional, cell-based; conditions: Homo sapiens;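 note: growth inhibition of KNS-81-FD cells, read out with a cell viability assay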
Description: SANGER: Inhibition of human KNS-81-FD cell growth in a cell viability assay.

LB1047-RCC = format: functional, cell-based; conditions: Homo sapiens;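 note: inhibition of cell growth, determined with a cell viability assay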
Description: SANGER: Inhibition of human LB1047-RCC cell growth in a cell viability assay.

LB2518-MEL = format: functional, cell-based; conditions: Homo sapiens;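 note: growth inhibition of human LB2518-MEL cells, measured with a cell viability assay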
Description: SANGER: Inhibition of human LB2518-MEL cell growth in a cell viability assay.

MHH-PREB-1 = format: functional, cell-based; conditions: Homo sapiens;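 note: cell viability assay measuring inhibition of proliferation of human MHH-PREB-1 cells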
Description: SANGER: Inhibition of human MHH-PREB-1 cell growth in a cell viability assay.

MMAC-SF = format: functional, cell-based; conditions: Homo sapiens;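 note: growth inhibition of human MMAC-SF cells, read out with a cell viability assay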
Description: SANGER: Inhibition of human MMAC-SF cell growth in a cell viability assay.

MOLT-16 = format: functional, cell-based; conditions: Homo sapiens;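 note: growth inhibition of human MOLT-16 cells, read out with a cell viability assay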
Description: SANGER: Inhibition of human MOLT-16 cell growth in a cell viability assay.

MeWo = format: functional, cell-based; conditions: Homo sapiens;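 note: growth inhibition of MeWo cells, determined by a cell viability readout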
Description: SANGER: Inhibition of human Mewo cell growth in a cell viability assay.

NB13 = format: functional, cell-based; conditions: Homo sapiens;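 note: cell viability readout measuring growth inhibition of human NB13 cells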
Description: SANGER: Inhibition of human NB13 cell growth in a cell viability assay.

NB69 = format: functional, cell-based; conditions: Homo sapiens;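 note: growth inhibition of NB69 cells, determined by a cell viability assay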
Description: SANGER: Inhibition of human NB69 cell growth in a cell viability assay.

NCI-H1304 = format: functional, cell-based; conditions: Homo sapiens;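 note: growth inhibition of the cancer cell line, measured in a cell viability assay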
Description: SANGER: Inhibition of human NCI-H1304 cell growth in a cell viability assay.

NCI-H1395 = format: functional, cell-based; conditions: Homo sapiens;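 note: cell viability assay read-out quantifying reduced proliferation of human NCI-H1395 cells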
Description: SANGER: Inhibition of human NCI-H1395 cell growth in a cell viability assay.

NCI-H1563 = format: functional, cell-based; conditions: Homo sapiens;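 note: growth inhibition of human NCI-H1563 cells, read out with a cell viability assay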
Description: SANGER: Inhibition of human NCI-H1563 cell growth in a cell viability assay.

NCI-H1581 = format: functional, cell-based; conditions: Homo sapiens;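 note: cell growth inhibition read out by a viability assay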
Description: SANGER: Inhibition of human NCI-H1581 cell growth in a cell viability assay.

NCI-H1650 = format: functional, cell-based; conditions: Homo sapiens;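 note: growth inhibition of human NCI-H1650 cells measured by a cell viability assay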
Description: SANGER: Inhibition of human NCI-H1650 cell growth in a cell viability assay.

NCI-H1693 = format: functional, cell-based; conditions: Homo sapiens;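 note: growth inhibition of the human cell line, read out with a cell viability assay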
Description: SANGER: Inhibition of human NCI-H1693 cell growth in a cell viability assay.

NCI-H1838 = format: functional, cell-based; conditions: Homo sapiens;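 note: growth inhibition of NCI-H1838 cells, determined with a cell viability readout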
Description: SANGER: Inhibition of human NCI-H1838 cell growth in a cell viability assay.

OMC-1 = format: functional, cell-based; conditions: Homo sapiens;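 note: growth inhibition of the OMC-1 cell line, measured by a cell viability assay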
Description: SANGER: Inhibition of human OMC-1 cell growth in a cell viability assay.

RCC10RGB = format: functional, cell-based; conditions: Homo sapiens;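 note: growth inhibition of human RCC10RGB cells, read out by a cell viability assay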
Description: SANGER: Inhibition of human RCC10RGB cell growth in a cell viability assay.

RPMI-8226 = format: functional, cell-based; conditions: Homo sapiens
Description: SANGER: Inhibition of human RPMI-8226 cell growth in a cell viability assay.

RPMI-8866 = format: functional, cell-based; conditions: Homo sapiens
Description: SANGER: Inhibition of human RPMI-8866 cell growth in a cell viability assay.

Ramos-2G6-4C10 = format: functional, cell-based; conditions: Homo sapiens;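 note: growth inhibition of the cell line, measured by a cell viability read-out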
Description: SANGER: Inhibition of human Ramos-2G6-4C10 cell growth in a cell viability assay.

SCH = format: functional, cell-based; conditions: Homo sapiens;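 note: growth inhibition of human SCH cells, read out in a cell viability assay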
Description: SANGER: Inhibition of human SCH cell growth in a cell viability assay.

SF-539 = format: functional, cell-based; conditions: Homo sapiens;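 note: Read-out is a cell viability assay, with IC50 reflecting inhibition of cell growth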
Description: SANGER: Inhibition of human SF539 cell growth in a cell viability assay.

SK-LMS-1 = format: functional, cell-based; conditions: Homo sapiens;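 note: growth inhibition of human SK-LMS-1 cells, read out with a cell viability assay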
Description: SANGER: Inhibition of human SK-LMS-1 cell growth in a cell viability assay.

SK-MEL-1 = format: functional, cell-based; conditions: Homo sapiens;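 note: growth inhibition of human SK-MEL-1 cells, read out by a cell viability assay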
Description: SANGER: Inhibition of human SK-MEL-1 cell growth in a cell viability assay.

SK-N-DZ = format: functional, cell-based; conditions: Homo sapiens;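 note: growth inhibition of the cancer cell line, read out through a viability assay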
Description: SANGER: Inhibition of human SK-N-DZ cell growth in a cell viability assay.

SK-NEP-1 = format: functional, cell-based; conditions: Homo sapiens;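 note: growth inhibition of human SK-NEP-1 cells, read out by a cell viability assay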
Description: SANGER: Inhibition of human SK-NEP-1 cell growth in a cell viability assay.

SK-UT-1 = format: functional, cell-based; conditions: Homo sapiens;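 note: growth inhibition of SK-UT-1 cells, measured by a cell viability assay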
Description: SANGER: Inhibition of human SK-UT-1 cell growth in a cell viability assay.

SW-620 = format: functional, cell-based; conditions: Homo sapiens;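 note: growth inhibition of human SW-620 cells, measured by a cell viability assay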
Description: SANGER: Inhibition of human SW620 cell growth in a cell viability assay.

697 = format: functional, cell-based; conditions: Homo sapiens
Description: SANGER: Inhibition of human 697 cell growth in a cell viability assay.

A4-Fuk = format: functional, cell-based; conditions: Homo sapiens;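 note: growth inhibition of A4-Fuk cells, read out by a cell viability assay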
Description: SANGER: Inhibition of human A4-Fuk cell growth in a cell viability assay.

A498 = format: functional, cell-based; conditions: Homo sapiens;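 note: growth inhibition of human A498 cells, read out with a cell viability assay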
Description: SANGER: Inhibition of human A498 cell growth in a cell viability assay.

ATN-1 = format: functional, cell-based; conditions: Homo sapiens;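 note: growth inhibition of human ATN-1 cells, read out with a cell viability assay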
Description: SANGER: Inhibition of human ATN-1 cell growth in a cell viability assay.

BB65-RCC = format: functional, cell-based; conditions: Homo sapiens;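 note: growth inhibition of the cell line, measured with a cell viability assay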
Description: SANGER: Inhibition of human BB65-RCC cell growth in a cell viability assay.

BV-173 = format: functional, cell-based; conditions: Homo sapiens
Description: SANGER: Inhibition of human BV-173 cell growth in a cell viability assay.

Becker = format: functional, cell-based; conditions: Homo sapiens
Description: SANGER: Inhibition of human Becker cell growth in a cell viability assay.

CAL-12T = format: functional, cell-based, Homo sapiens; conditions: Homo sapiens, CAL-12T
Description: SANGER: Inhibition of human CAL-12T cell growth in a cell viability assay.

TE-8 = format: functional, cell-based; conditions: Homo sapiens
Description: SANGER: Inhibition of human TE-8 cell growth in a cell viability assay.

TGBC1TKB = format: functional, cell-based; conditions: Homo sapiens
Description: SANGER: Inhibition of human TGBC1TKB cell growth in a cell viability assay.

TGBC24TKB = format: functional, cell-based; conditions: Homo sapiens
Description: SANGER: Inhibition of human TGBC24TKB cell growth in a cell viability assay.

`Cn1cc(/C=C2\C(=O)Nc3cccnc32)c2ccccc21` was tested, and the IC50 (D-502MG) was > 2000 nM, the IC50 (DJM-1) was > 2000 nM and the IC50 (EKVX) was > 2000 nM. For the same compound, the IC50 (ES4) was > 2000 nM, the IC50 (ES5) was > 2000 nM and the IC50 (ES6) was > 2000 nM. The IC50 (EW-13) was > 2000 nM, the IC50 (GI-1) was > 2000 nM and the IC50 (HAL-01) was > 2000 nM. For the same compound, the IC50 (HCC1187) was > 2000 nM, the IC50 (HCC2218) was > 2000 nM and the IC50 (HDLM-2) was > 2000 nM. For the same compound, the IC50 (HOP-62) was 322 nM, the IC50 (HOS) was > 2000 nM and the IC50 (JVM-2) was > 2000 nM. For the same compound, the IC50 (JVM-3) was > 2000 nM, the IC50 (KARPAS-299) was > 2000 nM and the IC50 (KARPAS-45) was > 2000 nM. The IC50 (KG-1) was > 2000 nM, the IC50 (KM-H2) was > 2000 nM and the IC50 (KNS-81-FD) was > 2000 nM. For the same compound, the IC50 (LB1047-RCC) was > 2000 nM, the IC50 (LB2518-MEL) was > 2000 nM and the IC50 (MHH-PREB-1) was > 2000 nM. For the same compound, the IC50 (MMAC-SF) was > 2000 nM, the IC50 (MOLT-16) was > 2000 nM and the IC50 (MeWo) was > 2000 nM. For the same compound, the IC50 (NB13) was > 2000 nM, the IC50 (NB69) was > 2000 nM and the IC50 (NCI-H1304) was > 2000 nM. The IC50 (NCI-H1395) was > 2000 nM, the IC50 (NCI-H1563) was > 2000 nM and the IC50 (NCI-H1581) was > 2000 nM. For the same compound, the IC50 (NCI-H1650) was > 2000 nM, the IC50 (NCI-H1693) was > 2000 nM and the IC50 (NCI-H1838) was > 2000 nM. The IC50 (OMC-1) was > 2000 nM, the IC50 (RCC10RGB) was > 2000 nM and the IC50 (RPMI-8226) was > 2000 nM. For the same compound, the IC50 (RPMI-8866) was > 2000 nM, the IC50 (Ramos-2G6-4C10) was > 2000 nM and the IC50 (SCH) was > 2000 nM. The IC50 (SF-539) was > 2000 nM, the IC50 (SK-LMS-1) was > 2000 nM and the IC50 (SK-MEL-1) was > 2000 nM. For the same compound, the IC50 (SK-N-DZ) was > 2000 nM, the IC50 (SK-NEP-1) was > 2000 nM and the IC50 (SK-UT-1) was > 2000 nM. For the same compound, the IC50 (SW-620) was > 2000 nM, the IC50 697 was > 2000 nM and the IC50 (A4-Fuk) was > 2000 nM. The IC50 (A498) was > 2000 nM, the IC50 (ATN-1) was > 2000 nM and the IC50 (BB65-RCC) was > 2000 nM. The IC50 (BV-173) was > 2000 nM, the IC50 (Becker) was > 2000 nM and the IC50 (CAL-12T) was > 2000 nM. The IC50 (TE-8) was > 2000 nM, the IC50 (TGBC1TKB) was > 2000 nM and the IC50 (TGBC24TKB) was > 2000 nM.

For `COc1cc(Nc2c(C#N)cnc3cc(OCCCN4CCN(C)CC4)c(OC)cc23)c(Cl)cc1Cl` [BOSUTINIB], the IC50 (D-502MG) was > 2000 nM, the IC50 (DJM-1) was > 2000 nM and the IC50 (EKVX) was > 2000 nM. For the same compound, the IC50 (ES4) was 1210 nM, the IC50 (ES5) was 1870 nM and the IC50 (ES6) was > 2000 nM. The IC50 (EW-13) was > 2000 nM, the IC50 (GI-1) was > 2000 nM and the IC50 (HAL-01) was 1090 nM. The IC50 (HCC1187) was > 2000 nM, the IC50 (HCC2218) was > 2000 nM and the IC50 (HDLM-2) was > 2000 nM. For the same compound, the IC50 (HOP-62) was > 2000 nM, the IC50 (HOS) was > 2000 nM and the IC50 (JVM-2) was > 2000 nM. The IC50 (JVM-3) was 1050 nM, the IC50 (KARPAS-299) was > 2000 nM and the IC50 (KARPAS-45) was 925 nM. The IC50 (KG-1) was 1410 nM, the IC50 (KM-H2) was > 2000 nM and the IC50 (KNS-81-FD) was > 2000 nM. For the same compound, the IC50 (LB1047-RCC) was 1240 nM, the IC50 (LB2518-MEL) was > 2000 nM and the IC50 (MHH-PREB-1) was > 2000 nM. The IC50 (MMAC-SF) was > 2000 nM, the IC50 (MOLT-16) was > 2000 nM and the IC50 (MeWo) was > 2000 nM. The IC50 (NB13) was > 2000 nM, the IC50 (NB69) was > 2000 nM and the IC50 (NCI-H1304) was > 2000 nM. The IC50 (NCI-H1395) was > 2000 nM, the IC50 (NCI-H1563) was > 2000 nM and the IC50 (NCI-H1581) was > 2000 nM. The IC50 (NCI-H1650) was > 2000 nM, the IC50 (NCI-H1693) was 2000 nM and the IC50 (NCI-H1838) was > 2000 nM. For the same compound, the IC50 (OMC-1) was > 2000 nM, the IC50 (RCC10RGB) was > 2000 nM and the IC50 (RPMI-8226) was > 2000 nM. The IC50 (RPMI-8866) was 1260 nM, the IC50 (Ramos-2G6-4C10) was > 2000 nM and the IC50 (SCH) was > 2000 nM. The IC50 (SF-539) was > 2000 nM, the IC50 (SK-LMS-1) was > 2000 nM and the IC50 (SK-MEL-1) was > 2000 nM. The IC50 (SK-N-DZ) was > 2000 nM, the IC50 (SK-NEP-1) was 972 nM and the IC50 (SK-UT-1) was > 2000 nM. For the same compound, the IC50 (SW-620) was > 2000 nM, the IC50 697 was 456 nM and the IC50 (A4-Fuk) was 1310 nM. For the same compound, the IC50 (A498) was 1400 nM, the IC50 (ATN-1) was > 2000 nM and the IC50 (BB65-RCC) was 1900 nM. The IC50 (BV-173) was 508 nM, the IC50 (Becker) was > 2000 nM and the IC50 (CAL-12T) was > 2000 nM. The IC50 (TE-8) was > 2000 nM, the IC50 (TGBC1TKB) was > 2000 nM and the IC50 (TGBC24TKB) was > 2000 nM.
